The target of one experiment is BACE1 (Homo sapiens, UniProt P56817). As to the kind of experiment: Biochemical FRET based assay. As to conditions: Biochemical FRET based assay pIC50, recombinant BACE1 1 μg/ml, 120 min, room temperature, pH 5.0. From the text:
This assay is a Fluorescence Resonance Energy Transfer Assay (FRET) based assay. The substrate for this assay is an APP derived 13 amino acids peptide that contains the ‘Swedish’ Lys-Met/Asn-Leu mutation of the amyloid precursor protein (APP) β-secretase cleavage site. This substrate also contains two fluorophores: (7-methoxy-coumarin-4-yl) acetic acid (Mca) is a fluorescent donor with excitation wavelength at 320 nm and emission at 405 nm and 2,4-Dinitrophenyl (Dnp) is a proprietary quencher acceptor. […] Upon cleavage by BACE1, the fluorophore Mca is separated from the quenching group Dnp, restoring the full fluorescence yield of the donor. The increase in fluorescence is linearly related to the rate of proteolysis (Koike H et al. J. Biochem. 1999, 126, 235-242).
Briefly in a 384-well format recombinant BACE1 protein in a final concentration of 1 μg/ml is incubated for 120 min at room temperature with 10 μm substrate in incubation buffer (40 mM Citrate buffer pH 5.0, 0.04% PEG, 4% DMSO) in the absence or presence of compound. Next the amount of proteolysis is directly measured by fluorescence measurement at T=0 and T=120 (excitation at 320 nm and emission at 405 nm). Results are expressed in RFU, as difference between T120 and T0
From this an IC50 value (inhibitory concentration causing 50% inhibition of activity) can be obtained.

Experiment [1] relates to Aβ42. As to the kind of experiment: Cellular αlisa assay in SKNBE2 cells, Aβ42. Type of experiment: cell-based, human. As to conditions: SKNBE2 cells expressing hAPP695, 18 hours incubation. As for the experimental part:
(§1) In two αlisa assays the levels of Aβtotal and Aβ42 produced and secreted into the medium of human neuroblastoma SKNBE2 cells are quantified. The assay is based on the human neuroblastoma SKNBE2 expressing the wild type Amyloid Precursor Protein (hAPP695). The compounds are diluted and added to these cells, incubated for 18 hours and then measurements of Aβ42 and Aβtotal are taken. Aβtotal and Aβ42 are measured by sandwich αlisa. αlisa is a sandwich assay using biotinylated antibody AbN/25 attached to streptavidin coated beads and antibody Ab4G8 or cAb42/26 conjugated acceptor beads for the detection of Aβtotal and Aβ42 respectively. In the presence of Aβtotal or Aβ42, the beads come into close proximity. The excitation of the Donor beads provokes the release of singlet oxygen molecules that triggers a cascade of energy transfer in the Acceptor beads, resulting in light emission. Light emission is measured after 1 hour incubation (excitation at […] and emission at 615 nm).
(§2) From this an […] value (inhibitory concentration causing 50% inhibition of activity) can be obtained.

The test system of experiment [2] is Aβtotal. As to the kind of experiment: Cellular αlisa assay in SKNBE2 cells, Aβtotal. Type of experiment: cell-based, human. Particulars: SKNBE2 cells expressing hAPP695, 18 hours incubation. How it is done: as §1, §2
In experiment [3] the test system is Aβ42. As to the kind of experiment: In vivo efficacy: brain Aβ42 lowering (ELISA). Particulars: 30 mg/kg, p.o., 4 h. after administration, soluble fraction. Further details: species or system mouse. From the text: (§3) To determine whether acute administration of an Aβ42 peptide lowering agent would reduce Aβ peptide levels in vivo, non-transgenic rodents, e.g. mice or rats were used. Animals treated with the Aβ peptide lowering agent were examined and compared to those untreated or treated with vehicle and brain levels of soluble Aβ42 and total Aβ were quantitated by standard techniques, for example, using ELISA. Treatment periods varied from hours (h) to days and were adjusted based on the results of the Aβ42 lowering once a time course of onset of effect could be established.
(§4) A typical protocol for measuring Aβ42 lowering in vivo is shown but it is only one of many variations that could be used to optimize the levels of detectable Aβ. […] After a certain time, usually 2 or 4 h (as indicated in Table 7), the animals were sacrificed and Aβ42 levels were analysed.
(§5) Blood was collected by decapitation and exsanguinations in EDTA-treated collection tubes. […] The left hemisphere was stored at −18° C. for quantitative analysis of test compound levels. […]
(§6) Mouse brains from non-transgenic animals were resuspended in 8 volumes of 0.4% DEA (diethylamine)/50 mM NaCl containing protease inhibitors (Roche-11873580001 or 04693159001) per gram of tissue, e.g. for 0.158 g brain, add 1.264 ml of 0.4% DEA. […] Nine parts of supernatant were neutralized with 1 part 0.5 M Tris-HCl pH 6.8 and used to quantify Aβtotal and Aβ42. […]

Experiment [4] deals with Aβtotal. The experiment in a line: In vivo efficacy: brain Aβtotal lowering (ELISA). Set-up: species or system mouse. As to conditions: 30 mg/kg, p.o., 4 h. after administration, soluble fraction.
Source text: as §3, §4, §5, §6

Here are results for two compounds from patent US9845326B2, “Substituted 3,4-dihydropyrrolo[1,2-A]pyrazines as beta-secretase (BACE) inhibitors” (priority 2011, dated 2017).

Bounds are passed on as bounds.

Chain of BACE1 (P56817 46-501): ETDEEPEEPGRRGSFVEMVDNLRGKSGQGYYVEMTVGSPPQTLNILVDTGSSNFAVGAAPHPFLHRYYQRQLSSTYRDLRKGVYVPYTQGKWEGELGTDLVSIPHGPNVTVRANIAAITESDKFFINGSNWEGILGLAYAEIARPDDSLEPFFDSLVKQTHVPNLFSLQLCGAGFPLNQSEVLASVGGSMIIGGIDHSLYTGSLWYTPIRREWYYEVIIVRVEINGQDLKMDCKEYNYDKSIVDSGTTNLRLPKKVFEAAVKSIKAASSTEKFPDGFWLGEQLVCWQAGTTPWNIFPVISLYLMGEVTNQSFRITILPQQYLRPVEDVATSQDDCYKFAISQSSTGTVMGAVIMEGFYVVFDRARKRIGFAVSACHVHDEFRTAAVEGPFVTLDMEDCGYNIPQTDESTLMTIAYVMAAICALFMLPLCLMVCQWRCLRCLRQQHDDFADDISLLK

On to `C[C@@]1(c2cc(NC(=O)c3ccc(F)cn3)ccc2F)Cn2cc(F)cc2C(N)=N1` [Compound 7, (R)-5-Fluoro-pyridine-2-carboxylic acid [3-(1-amino-7-fluoro-3-methyl-3,4-dihydro-pyrrolo[1,2-a]pyrazin-3-yl)-4-fluoro-phenyl]-amide], for which the IC50 on BACE1 is 0.0417 µM; in the experiment on Aβ42 [1] (Homo sapiens, SKNBE2, 18 h, read-out: Cellular αlisa assay in SKNBE2 cells Aβ42 pIC50 (converted)) it was 0.00661 µM; with Aβtotal [2] (Homo sapiens, SKNBE2, 18 h, read-out: Cellular αlisa assay in SKNBE2 cells Aβtotal pIC50 (converted)), 0.00562 µM. In addition, the “Aβ42 (%Ctrl)_Mean” value with Aβ42 [3] was determined as 73 %Ctrl. For the same compound, in the experiment with Aβtotal [4], the “Aβtotal (%Ctrl)_Mean” value was 99 %Ctrl.

As for `COCC1(c2cc(NC(=O)c3ccc(F)cn3)ccc2F)Cn2cc(C(F)(F)F)cc2C(N)=N1` (centres unmarked) [Compound 30], the IC50 on BACE1 was 34.7 µM. Further, in the experiment with Aβ42 [1], the “Cellular αlisa assay in SKNBE2 cells Aβ42 pIC50” value was below 5. Moreover, in the experiment with Aβtotal [2], the “Cellular αlisa assay in SKNBE2 cells Aβtotal pIC50” value is on record as below 5.
